This is an account of results in patent publication US5405598A, “Sensitizing agents for use in boron neutron capture therapy” (priority 1992, dated 1995).

The EC50 is the concentration needed to bring the measured effect to its halfway point. Lower therefore signals an effect from little substance.

One data set deals with HIV-1 (strain LAV). Kind of data set: Anti-HIV-1 activity in human PBM cells. It counts as cell-based. The following applies: On day 6, in human PBM cells, without neutrons. The source says:
Thus, these compounds have antiviral activity in the absence of neutrons.
(§1) Biological methods are described in Schinazi et al, Antimicrob. Agents Chemother., vol. 34, pp. 1061-1067, (1990).

The next data set has as its system Vero. Kind of data set: Cytotoxicity in Vero cells. It counts as cell-based. The following applies: On day 3; read-out: Vero IC50 (cytotoxicity).
Text: as §1

The next data set has as its system PBM. In words: Cytotoxicity in PBM cells. It counts as cell-based, human. To be noted: On day 6; read-out: PBM IC50 (cytotoxicity).
Text: as §1

The next data set deals with CEM. In words: Cytotoxicity in CEM cells. The format is cell-based. The following applies: On day 6; read-out: CEM IC50 (cytotoxicity).
Text: as §1

The next data set has as its system Hepatitis B virus (HBV). The following applies: racemic BCH-189; FTC; cited from earlier work.
The subject of data set [1] is human immunodeficiency viruses (HIV). The following applies: racemic BCH-189; FTC; cited from earlier work.
The conditions of data set [2]: mice, radiolabeled; cited from earlier work.
The conditions of data set [3]: mice; cited from earlier work.
In the next data set the test system is malignant cells. The following applies: under both euoxic and hypoxic conditions; cited from earlier work.
Another data set deals with hamster V-79 cells. The following applies: when irradiated with low energy neutrons; cited from earlier work.

A value given as a limit tells only on which side of the number the result lay.

“5'-O-Butyryl-5-carboranyl-3'-thia-2',3'-dideoxyuridine”: the EC50 with HIV-1 (strain LAV) worked out at 6.4 µM.
As to “5-Carboranyl-2',3'-dideoxy-3'-thiauridine”, the CC50 in the data set on Vero was 34.2 µM; in the data set on PBM it was > 100 µM; with CEM, 37.9 µM. Moreover, a half-maximal effect with HIV-1 (strain LAV) (EC50) was put at 12.1 µM.
On to `Nc1ccn([C@H]2CS[C@@H](CO)O2)c(=O)n1` (racemic) [BCH-189, 2', 3'-dideoxy-3'-thiacytidine], for which the “viability as anti-HBV agent” value in the data set with Hepatitis B virus (HBV) is “demonstrated”. In addition, the “viability as anti-HIV agent” value in data set [1] is given as “demonstrated”.
For `Cc1cc(OP(=O)(O)O)c2cc(I)ccc2c1OP(=O)(O)O` [6-I-MNDP, 6-iodo-2-methyl-1,4-naphthoquinol bis(diammonium phosphate)], in data set [2], the “uptake in tumor tissues” value was “high uptake”; the “uptake into critical radiosensitive tissues, such as bone-marrow, colon, and lung” value is given as “low uptake”. Also, the “metabolic stability of the halogen-carbon bond” value in data set [3] is on record as “metabolically stable”. Besides, the “uptake into malignant cells relative to normal cells” value in the data set with malignant cells was 15-20 fold.
As to `O=c1[nH]c(=O)n([C@H]2C[C@H](O)[C@@H](CO)O2)cc1B(O)O` [DBDU, 5-dihydroxyboryl-2'-deoxyuridine], the “destruction of hamster V-79 cells” value in the data set with hamster V-79 cells is “destroy hamster V-79 cells”.
Turning to `Nc1nc(=O)n([C@H]2CS[C@@H](CO)O2)cc1F` [FTC, 2', 3'-dideoxy-5-fluoro-3'-thiacytidine], in the data set on Hepatitis B virus (HBV), the “viability as anti-HBV agent” value was “demonstrated”. In addition, the “viability as anti-HIV agent” value in data set [1] is given as “demonstrated”.
